Test results: PMC7700664, “In Vitro and Ex Vivo Evaluation of Penetratin as a Non-invasive Permeation Enhancer in the Penetration of Salmon Calcitonin through TR146 Buccal Cells and Porcine Buccal Tissues” (Pharmaceuticals, 2020)
One block for each substance: values may come before it.

Assays:
TR146 cells = test: FITC-Penetratin and Alexa 647-sCT internalization in TR146 cells (flow cytometry); format: cell-based, human; settings: 2 h, FACS
Experimental: For the internalization of FITC-Penetratin and Alexa 647-sCT, Alexa 647-sCT was synthesized. Alexa-647 and sCT were left at room temperature for 2 h to react, and the reaction was terminated using ammonium chloride. Purification of Alexa 647-sCT was done through dialysis.
TR146 cells were seeded in a 6-well culture plate and confocal dish at a density of 5.0 × 10^5 cells per well, and incubated for 24 h at 37 °C in 5 % CO2. To determine the concentration at which optimal intracellular uptake of Penetratin occurs, FITC-Penetratin at 2.5, 5, 10, 15, 20, 30, and 40 μM were added and incubated for 2 h.
To confirm the effect of Penetratin on intracellular uptake of sCT, 1.22, 6.10 and 12.2 μM of FITC-Penetratin were added to 40 μg of Alexa 647-sCT and incubated for 2 h at 37 °C. For the energy-independent internalization of Penetratin, 40 μg of Alexa 647-sCT and 12.2 μM of FITC-Penetratin were added and incubated for 2 h at 4 °C (energy-abolishing condition) and 37 °C (biological condition). After 2 h, imaging study with flow cytometry (BD FACSverse; Becton Dickinson, Heidelberg, Germany) and confocal laser scanning microscopy (LSM 800, Zeiss, Oberkochen, Germany) were performed.
TR146 cells were treated with a pre-determined amount of FITC-Penetratin and Alexa 647-sCT in a 6-well culture plate. […]

[1] = no reference given for the value; cited from earlier work
Experimental: Penetratin is one of the most promising CPPs. Penetratin has positively charged amino acids such as lysine and arginine, and hydrophobic amino acids. Various cargoes were delivered by overcoming the barrier of the cell membrane, but the mechanism of CPPs and Cargo delivery through the cell membrane is still unclear. There is a possible explanation. At pH 7.4, where permeation and cell uptake experiments were conducted, sCT with a pI of 10.4 and penetratin have a positive charge, so there is no ionic interaction between penetratin and sCT. Penetratin and sCT form a hydrophobic interactio ...

porcine buccal tissues = test: Ex vivo buccal tissues permeation (Franz diffusion cell); format: in vitro ADME; settings: 40 μg sCT; for Kp (permeability coefficient) / Js (flux): porcine buccal epithelium, 37 °C, mean ± SD n = 3; for Kp (permeability coefficient): Franz cell, pH 7.4 PBS, ELISA, Kp = Js/Cd; for Js (flux): Franz diffusion cell, area 2.0 cm^2, receptor 12.5 mL pH 7.4 PBS, 600 rpm, 8 h, sCT ELISA; for ER (enhancement ratio): porcine buccal tissue
Experimental: Buccal pre-treatment was performed according to the experimental method of Oh et al.. Briefly, porcine buccal tissues were immediately collected after pigs were sacrificed from a local slaughterhouse. Adipose and connective tissues were removed from buccal mucosa using surgical scissors. To obtain buccal epithelium, tissues were put in pH 7.4 PBS at 60 °C for 1 min. They were evaluated in the following in vitro permeation study.
Buccal permeability of sCT was evaluated using the Franz diffusion cell. The permeation area was 2.0 cm^2, and the volume of receptor media was 12.5 mL. The receptor was filled with pH 7.4 PBS and stirred at 600 rpm at 37 °C. The Franz diffusion cell was equilibrated for 30 min after mounting the buccal epithelium. Forty micrograms of sCT and of 1.22, 6.10 and 12.2 μM of Penetratin, of which molecular ratios were 1:0.1, 1:0.5 and 1:1 in donor part, respectively, were added to the Franz diffusion cell. Half of a milliliter of sample was obtained at different time intervals (1, 2, 4, and 8 h) from the receptor part and analyzed by a sCT ELISA kit (Phoenix Pharmaceuticals, Burlingame, CA, USA).
(§1) The flux (Js) was calculated using the following Equation (2), where t (h) was permeation time, A( cm^2 ) was permeation area, and Qr (ng) was the permeated amount of sCT, (2) Js=Qr/A·t(ng·cm^−2·h^−1) Kp was calculated with the following Equation (3), (3) Kp=Js/Cd([…]) where Js was the flux from the steady state (ng⋅cm^−2⋅h^−1) and Cd was the initial concentration in the donor chamber (ng⋅cm^−3). Finally, the enhancement ratio (ER) was obtained by dividing the Kp value of each formulation with that of the control.

TR146 cell layer = test: In vitro cell permeation study (Transwell); format: in vitro ADME, human; design: Kp (permeability coefficient): unit not given here; settings: 40 μg sCT; for Kp (permeability coefficient) / ER (enhancement ratio): TR146 Transwell; for Kp (permeability coefficient) / Js (flux): apical to basolateral, HBSS-HEPES, 37 °C, mean ± SD n = 3; for Kp (permeability coefficient): ELISA, Kp = Js/Cd; for Js (flux): TR146 layer on 12-well Transwell, 28–30 days culture, sampling 0.5–8 h, sCT ELISA
Experimental: (§2) TR146 cell was seeded in a 12-well Transwell insert (Corning Inc., Corning, NY, USA) at a density of 5 × 10^4 cells per cm^2, and the medium was changed every 2 days for 28–30 days. The experiment was conducted from apical to basolateral and HBSS-HEPES buffer was used as media. Forty micrograms of sCT and 1.22, 6.10, and 12.2 μM of Penetratin were added to apical chamber and kept at 37 °C. 500 μL of sampling was obtained at 0.5, 1, 2, 4 and 8 h. Transepithelial electrical resistance (TEER) value was measured before and after the experiment. TEER was calculated with the following Equation (1), where Rinsert with cell, Rinsert without cell, and A were insert filter areas. The permeated amount of sCT was analyzed using an sCT ELISA kit (Phoenix Pharmaceuticals, Burlingame, CA, USA):TEER = (Rinsert with cell − Rinsert without cell) × A(1)
as §1

TR146 cell layers = test: TEER before and after permeability experiments; format: cell-based, human; settings: for TEER Value After: after permeability experiment (8 h, 37 °C); for TEER Value After / TEER Value Before: TR146 cell layers on Transwell; for TEER Recovery: after vs before permeability experiment, TR146 cell layers; for TEER Value Before: before permeability experiment
Experimental: as §2

[2] = Penetratin 1.22 μM, Kp of formulation divided by Kp of control
[3] = Penetratin 6.10 μM, Kp of formulation divided by Kp of control

Substance: FITC-Penetratin: FITC labeled Penetratin, purchased from Peptron
- internalization of FITC-Penetratin at 4 °C (TR146 cells; 12.2 μM FITC-Penetratin + 40 μg Alexa 647-sCT, 4 °C): confirmed
- relative MFI of FITC-Penetratin (internalization) versus concentration (TR146 cells; FITC-Penetratin 2.5–40 μM, 37 °C, n = 3): increased steeply from 2.5 to 15 μM, but increased more gradually from 15 to 40 μM

- Kp (permeability coefficient) (porcine buccal tissues; Penetratin 0 μM (control)): 0.005 ± 0.000 cm·h^−2 × 10^−3
- Js (flux) (porcine buccal tissues; Penetratin 0 μM (control)): 0.208 ± 0.018 ng·cm^−2·h^−1
- Js (flux) (porcine buccal tissues; Penetratin 1.22 μM (sCT:Penetratin 1:0.1)): 1.973 ± 0.660 ng·cm^−2·h^−1
- Kp (permeability coefficient) (porcine buccal tissues; Penetratin 1.22 μM): 0.049 ± 0.017 cm·h^−2 × 10^−3
- ER (enhancement ratio) (porcine buccal tissues; [2]): 9.5
- Js (flux) (porcine buccal tissues; Penetratin 6.10 μM (sCT:Penetratin 1:0.5)): 6.707 ± 0.832 ng·cm^−2·h^−1
- Kp (permeability coefficient) (porcine buccal tissues; Penetratin 6.10 μM): 0.168 ± 0.021 cm·h^−2 × 10^−3
- ER (enhancement ratio) (porcine buccal tissues; [3]): 32.2
- Js (flux) (porcine buccal tissues; Penetratin 12.2 μM (sCT:Penetratin 1:1)): 19.507 ± 1.794 ng·cm^−2·h^−1
- Kp (permeability coefficient) (porcine buccal tissues; Penetratin 12.2 μM): 0.488 ± 0.045 cm·h^−2 × 10^−3
- ER (enhancement ratio) (porcine buccal tissues; Penetratin 12.2 μM, Kp of formulation divided by Kp of control (text: fold increase of flux / permeated amount)): 93.7
- Kp (permeability coefficient) (TR146 cell layer; Penetratin 0 μM (control)): 0.201 ± 0.007
- Js (flux) (TR146 cell layer; Penetratin 0 μM (control)): 16.091 ± 0.560 ng·cm^−2·h^−1
- Kp (permeability coefficient) (TR146 cell layer; Penetratin 1.22 μM): 0.275 ± 0.041
- ER (enhancement ratio) (TR146 cell layer; [2]): 1.4
- Js (flux) (TR146 cell layer; Penetratin 1.22 μM): 22.004 ± 3.247 ng·cm^−2·h^−1
- Kp (permeability coefficient) (TR146 cell layer; Penetratin 6.10 μM): 0.676 ± 0.063
- ER (enhancement ratio) (TR146 cell layer; [3]): 3.4
- Js (flux) (TR146 cell layer; Penetratin 6.10 μM): 54.075 ± 5.053 ng·cm^−2·h^−1
- Kp (permeability coefficient) (TR146 cell layer; Penetratin 12.2 μM): 1.115 ± 0.140
- ER (enhancement ratio) (TR146 cell layer; Penetratin 12.2 μM, Kp of formulation divided by Kp of control (text: fold increase of Js/flux)): 5.5
- Js (flux) (TR146 cell layer; Penetratin 12.2 μM): 89.190 ± 11.227 ng·cm^−2·h^−1
- TEER Value After (TR146 cell layers; 40 μg sCT + Penetratin 0 μM): 60.48 ± 5.88 Ω·cm^2
- TEER Value After (TR146 cell layers; 40 μg sCT + Penetratin 1.22 μM): 59.73 ± 2.94 Ω·cm^2
- TEER Value After (TR146 cell layers; 40 μg sCT + Penetratin 6.10 μM): 60.11 ± 6.00 Ω·cm^2
- TEER Value After (TR146 cell layers; 40 μg sCT + Penetratin 12.2 μM): 61.60 ± 6.62 Ω·cm^2
- TEER Recovery (TR146 cell layers; 40 μg sCT + Penetratin 0 μM): 96.31 ± 1.78%
- TEER Recovery (TR146 cell layers; 40 μg sCT + Penetratin 1.22 μM): 94.21 ± 1.90%
- TEER Recovery (TR146 cell layers; 40 μg sCT + Penetratin 6.10 μM): 98.17 ± 2.64%
- TEER Recovery (TR146 cell layers; 40 μg sCT + Penetratin 12.2 μM): 96.52 ± 4.97%
- TEER Value Before (TR146 cell layers; group 40 μg sCT + Penetratin 0 μM): 62.72 ± 5.20 Ω·cm^2
- TEER Value Before (TR146 cell layers; group 40 μg sCT + Penetratin 1.22 μM): 63.47 ± 3.99 Ω·cm^2
- TEER Value Before (TR146 cell layers; group 40 μg sCT + Penetratin 6.10 μM): 61.23 ± 6.00 Ω·cm^2
- TEER Value Before (TR146 cell layers; group 40 μg sCT + Penetratin 12.2 μM): 63.84 ± 6.42 Ω·cm^2
Substance: Salmon calcitonin [sCT]
- pI [1]: 10.4
